# Experimental data published in patent US20230128688A1, “DIRECTED CONJUGATION TECHNOLOGIES” (KLEO PHARMACEUTICALS, INC., priority 2019, published 2023).
# Non-standard residues stand in square brackets, D forms with d. Residues, ends and D or L forms follow the SMILES beside them. *: point of attachment. X2 = O=C(CCOCCOCCOCCOCCOCCOCCNC(=S)Nc1ccc2c(c1)C(=O)OC21c2ccc(O)cc2Oc2cc(O)ccc21)Oc1c(F)cc(CN*)cc1F; PEG4 = NCCOCCOCCOCCOCCC(=O)O
# Assays:
# Cetuximab = assay: Absorbance based DAR analysis of FITC conjugation to antibody; assay type: biochemical; conditions: 2.5 M eq reagent, phosphate buffer saline pH 7.4, 4 h, 25 C; Drug = FITC
# Procedure: (§1) In some embodiments, reaction partners, e.g., compounds of formula R-I or salts thereof ere dissolved in DMSO to 5 mM stock solution.
# (§2) In some embodiments, reactions are set up with 300 micrograms of antibody. In some embodiments, various conditions, including various buffers, reagent equivalents, reaction time, reaction temperature and reaction concentrations can be utilized.
# (§3) In some embodiments, a useful technology is absorbance based DAR analysis. DAR (ratio of moieties of interest and target agent moieties (e.g., antibody agent moieties) was calculated for various antibody conjugates, e.g., in various reagent screening/assessment methods. Various agents comprising target binding moieties were assessed for conjugation efficiency as reaction partners with targets, e.g. protein agents such as antibody agents, compared to reagents with the same reactive groups but without target binding moieties. In various ratio determination ‘Drug’/moiety of interest is fluorescein isothiocyanate (FITC) dye conjugated to target agents, e.g., antibody agents. DAR molar ratio is defined as a ratio of moles of drug/moiety of interest to moles of target agent/antibody. Molarity is calculated from absorbance of FITC (A485) and antibody (A280) of conjugated product, and extinction coefficients of FITC and antibody using Beer-Lambert law. Correction coefficient 0.35 was used to correct for absorbance of FITC at 280 nm. Biotek Synergy H1 microplate reader and Take3 microvolume plate were used for absorbance measurements. Concentration of antibody was at least 3 mg/mL for optimal signal-to-noise in the readings. Certain target binding moieties that can provide higher DAR compared to equivalent controls (absence of target binding moieties) were selected as hits for further analysis. Certain assessment data were provided below as examples.
# Reactions were set up with antibodies using 2.5 M eq of indicated reagent in phosphate buffer saline pH 7.4 for 4 h at 25° C. DAR is Drug to antibody ratio, in this case “Drug” is FITC and DAR is measured using FITC absorbance.
# daratumumab = assay: as above; assay type: biochemical
# Procedure: as §1, §2
# As an example, one reaction is 300 microliter reaction with 1 mg/mL of antibody in PBS. Peptide I-45 (1 microliter of 5 mM stock in DMSO, 2.5 molar equivalents relative to daratumumab) was diluted in 284 microliters of PBS buffer (10 mM phosphate, 150 mM sodium chloride, pH 7.4), then 15 microliters of daratumumab (20 mg/mL stock) was added to the reaction mixture followed by incubation at room temperature in the dark. After 4 h reaction buffer was exchanged using Amicon Ultra centrifuge filter (30 KDa MWCO, 0.5 mL volume). First, glycine buffer (100 mM, pH 2.1) was used for buffer exchange to ensure dissociation of target binding moieties after reaction. Then, phosphate buffer saline (pH 7.4) was used for further buffer exchange and storage.
# In another example, a reaction is 300 microliter reaction with 1 mg/mL of antibody in borate buffer. Peptide I-44 (1.2 microliter of 5 mM stock in DMSO, 3.0 molar equivalents relative to daratumumab) was diluted in 284 microliters of Borate buffer (100 mM borate, pH 8.3), then 15 microliters of daratumumab (20 mg/mL stock) was added to the reaction mixture followed by incubation at room temperature in the dark. After 20 h reaction buffer was exchanged using Amicon Ultra centrifuge filter (30 KDa MWCO, 0.5 mL volume). First, glycine buffer (100 mM, pH 2.1) was used for buffer exchange to ensure dissociation of target binding moieties after reaction. Then, phosphate buffer saline (10 mM phosphate, 150 mM sodium chloride, pH 7.4) was used for further buffer exchange and storage.
# as §3
# [1] = 2.5 M eq reagent, phosphate buffer saline pH 7.4, 4 h, 25 C, Drug = FITC
# [2] = 2.5 M eq, 25 C, 4 h, PBS pH 7.4
# [3] = 5 M eq reagent, phosphate buffer saline pH 7.4, 4 h, 25 C, Drug = FITC
# [4] = 10 M eq reagent, Bicarbonate buffer pH 8.3, 2 h, 37 C, Drug = FITC
# [5] = antibody 1 mg/mL, 2.5 M eq, 25 C, 20 h, PBS pH 7.4
# [6] = antibody 1 mg/mL, 3 M eq, 25 C, 20 h, PBS pH 7.4
# [7] = antibody 1 mg/mL, 3.5 M eq, 25 C, 20 h, PBS pH 7.4
# [8] = antibody 4 mg/mL, 2.5 M eq, 25 C, 20 h, PBS pH 7.4
# [9] = antibody 4 mg/mL, 3 M eq, 25 C, 20 h, PBS pH 7.4
# [10] = antibody 4 mg/mL, 3.5 M eq, 25 C, 20 h, PBS pH 7.4
# [11] = 30 M eq reagent, borate buffer pH 8.3, 20 h, 37 C, Drug = FITC
smiles,measurement,setting,value
CCNC(=O)c1ccc(OC(=O)CCOCCOCCOCCOCCOCCOCCNC(=S)Nc2ccc3c(c2)C(=O)OC32c3ccc(O)cc3Oc3cc(O)ccc32)c(F)c1 [Compound I-18],DAR Cetuximab,Cetuximab,0.04
same,DAR,daratumumab; [1],0.05
same,DAR Daratumumab,daratumumab; [1],0.05
same,DAR,"daratumumab; 2.5 M eq, 25 C, 4 h, Acetate pH 6.2",0.08
same,DAR,"daratumumab; 2.5 M eq, 25 C, 4 h, Borate pH 8.3",0.35
same,DAR,daratumumab; [2],0.05
same,DAR,daratumumab; [3],0.15
same,DAR,"daratumumab; 5 M eq, 25 C, 4 h, Acetate pH 6.2",0.14
same,DAR,"daratumumab; 5 M eq, 25 C, 4 h, Borate pH 8.3",0.42
same,DAR,"daratumumab; 5 M eq, 25 C, 4 h, PBS pH 7.4",0.08
same,DAR,"daratumumab; 10 M eq, 25 C, 2 h, Acetate pH 6.2",0.12
same,DAR,"daratumumab; 10 M eq, 25 C, 4 h, Borate pH 8.3",0.77
same,DAR,"daratumumab; 10 M eq, 25 C, 4 h, PBS pH 7.4",0.15
CC(=O)NCc1cc(F)c(OC(=O)CCOCCOCCOCCOCCOCCOCCNC(=S)Nc2ccc3c(c2)C(=O)OC32c3ccc(O)cc3Oc3cc(O)ccc32)c(F)c1 [Compound I-9],DAR Cetuximab,Cetuximab,0.03
same,DAR,daratumumab; [1],0.06
same,DAR Daratumumab,daratumumab; [1],0.06
same,DAR,daratumumab; [4],1.10
same,DAR,daratumumab; [5],0.19
same,DAR,daratumumab; [6],0.18
same,DAR,daratumumab; [7],0.24
same,DAR,daratumumab; [8],0.37
same,DAR,daratumumab; [9],0.49
same,DAR,daratumumab; [10],0.44
CC(=O)NCC(=O)N[C@@H](CO)C(=O)N[C@@H](Cc1ccc(O)cc1)C(=O)N[C@@H](Cc1c[nH]c2ccccc12)C(=O)N[C@@H](Cc1ccc(O)cc1)C(=O)N[C@@H](CC(=O)O)C(=O)N[C@H](C(=O)N[C@@H](Cc1c[nH]c2ccccc12)C(=O)N[C@@H](Cc1ccccc1)C(=O)NCCOCCOCCOCCOCCC(=O)NCc1cc(F)c(OC(=O)CCOCCOCCOCCOCCOCCOCCNC(=S)Nc2ccc3c(c2)C(=O)OC32c3ccc(O)cc3Oc3cc(O)ccc32)c(F)c1)C(C)C [Compound I-45] (Ac-GSYWYDVWF[PEG4]-X2),DAR Cetuximab,Cetuximab,0.70
same,DAR,daratumumab; [1],0.64
same,DAR Daratumumab,daratumumab; [1],0.64
same,DAR,daratumumab; [5],0.90
same,Fold (DAR I-45 over I-9),daratumumab; [5],4.78
same,DAR,daratumumab; [6],0.96
same,Fold (DAR I-45 over I-9),daratumumab; [6],5.31
same,DAR,daratumumab; [7],1.06
same,Fold (DAR I-45 over I-9),daratumumab; [7],4.39
same,DAR,daratumumab; [8],1.04
same,Fold (DAR I-45 over I-9),daratumumab; [8],2.81
same,DAR,daratumumab; [9],1.09
same,Fold (DAR I-45 over I-9),daratumumab; [9],2.23
same,DAR,daratumumab; [10],1.06
same,Fold (DAR I-45 over I-9),daratumumab; [10],2.40
same,FITC DAR,daratumumab; sample (a) of FIG. 12 / FIG. 13,0.43
COc1ccc(NC(=O)c2cn3ccsc3n2)cc1C(=O)NCCCC(=O)NCc1cc(F)c(OC(=O)CCOCCOCCOCCOCCOCCOCCNC(=S)Nc2ccc3c(c2)C(=O)OC32c3ccc(O)cc3Oc3cc(O)ccc32)c(F)c1 [Compound I-1],DAR,daratumumab; [4],1.00
N=C(N)NCCC[C@H](NC(=O)CCOCCOCCOCCOCCNC(=O)c1ccc(OC(=O)CCOCCOCCOCCOCCOCCOCCNC(=S)Nc2ccc3c(c2)C(=O)OC32c3ccc(O)cc3Oc3cc(O)ccc32)cc1)C(=O)N[C@@H](CCCNC(=N)N)C(=O)NCC(=O)N[C@@H](Cc1c[nH]c2ccccc12)C(=O)O [Compound I-22],DAR,"daratumumab; 10 M eq reagent, Bicarbonate buffer pH 8.3, 20 h, 25 C, Drug = FITC",−0.18
CCNC(=O)c1ccc(OC(=O)CCOCCOCCOCCOCCOCCOCCNC(=S)Nc2ccc3c(c2)C(=O)OC32c3ccc(O)cc3Oc3cc(O)ccc32)cc1 [Compound I-19],DAR,daratumumab; [1],0.20
CC(=O)NCc1ccc(OC(=O)CCOCCOCCOCCOCCOCCOCCNC(=S)Nc2ccc3c(c2)C(=O)OC32c3ccc(O)cc3Oc3cc(O)ccc32)c(F)c1 [Compound I-10],DAR,daratumumab; [1],0.08
same,DAR,daratumumab; [2],0.08
same,DAR,"daratumumab; 2.5 M eq, 25 C, 20 h, Borate pH 8.2",0.21
same,DAR,"daratumumab; 2.5 M eq, 25 C, 20 h, PBS pH 7.4",0.07
same,DAR,"daratumumab; 2.5 M eq, 25 C, 20 h, PBS pH 7.8",0.15
same,DAR,"daratumumab; 2.5 M eq, 25 C, 20 h, PBS pH 8.0",0.06
same,DAR,"daratumumab; 2.5 M eq, 25 C, 20 h, PBS pH 8.2",0.03
same,DAR,"daratumumab; 2.5 M eq, 30 C, 20 h, PBS pH 7.4",0.05
same,DAR,"daratumumab; 2.5 M eq, 37 C, 20 h, PBS pH 7.4",0.17
same,DAR,daratumumab; [4],0.14
same,DAR,daratumumab; [11],0.98
CC(=O)N[C@@H](CC(=O)O)C(=O)N[C@H]1CSSC[C@@H](C(=O)N[C@H](C(=O)O)[C@@H](C)O)NC(=O)[C@H](Cc2c[nH]c3ccccc23)NC(=O)[C@H](C(C)C)NC(=O)[C@H](CC(C)C)NC(=O)[C@H](CCC(=O)O)NC(=O)CNC(=O)[C@H](CCC(=O)Nc2cc(OC(=O)CCOCCOCCOCCOCCOCCOCCOCCOCCNC(=S)Nc3ccc4c(c3)C(=O)OC43c4ccc(O)cc4Oc4cc(O)ccc43)ccc2F)NC(=O)[C@H](Cc2c[nH]cn2)NC(=O)[C@H](Cc2c[nH]c3ccccc23)NC(=O)[C@H](C)NC1=O [Compound I-24],DAR,daratumumab; [3],0.05
same,DAR,daratumumab; [11],0.83
O=C(CCCc1c[nH]c2ccccc12)NCc1ccc(OC(=O)CCOCCOCCOCCOCCOCCOCCNC(=S)Nc2ccc3c(c2)C(=O)OC32c3ccc(O)cc3Oc3cc(O)ccc32)c(F)c1 [Compound I-17],DAR,"daratumumab; 5 M eq reagent, bicarbonate buffer pH 8.3, 20 h, 37 C, Drug = FITC",0.37
CCCCNc1nc(NCCOCCOCCC(=O)NCc2cc(F)c(OC(=O)CCOCCOCCOCCOCCOCCOCCNC(=S)Nc3ccc4c(c3)C(=O)OC43c4ccc(O)cc4Oc4cc(O)ccc43)c(F)c2)nc(NCc2cccc(F)c2)n1 [Compound I-2],DAR,daratumumab; [4],1.76
